{"source": "patent US20130130306A1", "about": "“ZN (II) BASED COLORIMETRIC SENSOR AND PROCESS FOR THE PREPARATION THEREOF” (COUNCIL OF SCIENTIFIC & INDUSTRIAL RESEARCH, priority 2010, published 2013)", "origin": "cited, not measured here", "test_system": "living microbes (eukaryotes and prokaryotes)", "details": "drug carrier, general knowledge; cited from earlier work", "data": [{"compound": "OC[C@H]1O[C@@H]2O[C@H]3[C@H](O)[C@@H](O)[C@@H](O[C@H]4[C@H](O)[C@@H](O)[C@@H](O[C@H]5[C@H](O)[C@@H](O)[C@@H](O[C@H]6[C@H](O)[C@@H](O)[C@@H](O[C@H]7[C@H](O)[C@@H](O)[C@@H](O[C@H]1[C@H](O)[C@H]2O)O[C@@H]7CO)O[C@@H]6CO)O[C@@H]5CO)O[C@@H]4CO)O[C@@H]3CO", "note": "[α-CD, α-cyclodextrin]", "values": [{"measurement": "toxicity to the living cell (known)", "result": "completely non-toxic"}]}]}
